# Results taken from patent US8202554B2, “Extract of the family dioscoreaceae and composition for preventing or treating peripheral neuropathy comprising the same” (priority 2005, dated 2012).
# Experiments:
# PC 12 cell = experiment: Measurement of neurite outgrowth; format: cell-based; details: PC12 cells, neurite length measured after 48 hours, vs ethanol control
# Experimental: In an incubator with conditions including 5% CO2 and a temperature of 37° C., PC 12 cell (pheochromocytoma, ATCC Number: CRL-1721) was cultured in a RPMI 1640 medium supplemented with horse serum (10%, v/v), fetal bovine serum (5%, v/v), and 1% penicillin-streptomycin
# In order to find the effect of the compound of Formula 2 on the neurite outgrowth, the mediums supplemented with 2% horse serum, 1% fetal bovine serum, and 1% penicillin-streptomycin were added to each 6-well plate coated with poly-d-lysine and then the PC12 cells were inoculated in 5×10^4 cells each well. After 24 hours, these wells were treated with 10 □/ml of ethanol, 10 □/□ of the compound of Formula 2, and 50 ng/□ of a nerve growth factor (R&D system, USA), respectively. Then, after 48 hours, the length of the neurite was measured using an inverted image contrast microscope (CK-2, Olympus, USA) (See FIG. 1 and FIG. 2)
# [1] = system: endogenous nerve growth factor; experiment: Level of nerve growth factor in sciatic nerve of diabetes-induced mouse (ELISA); format: in vivo, alloxan-induced diabetic ICR mice; details: diabetes-induced mice, 10 mg/kg P.O three times per week, one month
# Experimental: 7-week old male ICR mice underwent alimentary abstinence for 18 hours, and then alloxan dissolved in a physiological saline was once injected to them by intraperitoneal injection in an amount of 160 mg/kg to induce diabetes. Mice that maintained their fasting blood sugar to 200 mg/dl or more for one week, that is, diabetes-induced mice were selected and then divided into a control group (n=5), and a compound-administered group (n=5). The control group was administered with 0.2 ml of a solution of dimethylsulfoxide:ethanol (3:1), and the compound-administered group was administered with the compound of Formula 2 dissolved in a solution of dimethylsulfoxide:ethanol (3:1) in an amount of 10 mg/kg. The all groups were orally administered three times per one week, and the entire administration period was one month. The amount of an endogenous nerve growth factor in the sciatic nerve was measured by ELISA (see FIG. 7)
# Accordingly, it is considered that the results shown in FIGS. 5 and 6 result from the nerve protecting function of the nerve growth factor.
# [2] = system: sciatic nerve of diabetes-induced mouse; experiment: Transmission speed of motor nerve and sensory nerve of sciatic nerve in diabetes-induced mouse; format: in vivo, alloxan-induced diabetic ICR mice; details: diabetes-induced mice, 10 mg/kg p.o. three times per week
# Experimental: The therapeutic effect of the compound according to the present invention on the diabetic neuropathy, one of the multiple neuropathies, was identified by measuring the effect of the compound according to the present invention on the transmission speed of the motor nerve and sensory nerve in the sciatic nerve.
# 7-week old male ICR mice underwent alimentary abstinence for 18 hours, and then alloxan dissolved in a physiological saline was once injected to them by intraperitoneal injection in an amount of 160 mg/kg to induce diabetes. Mice that maintained their fasting blood sugar to 200 mg/dl or more for one week, that is, diabetes-induced mice were selected and then divided into a control group (n=7), and a compound-administered group (n=7). The control group was administered with 0.2 ml of a solution of dimethylsulfoxide:ethanol (3:1), and the compound-administered group was administered with the compound of Formula 2 dissolved in a solution of dimethylsulfoxide:ethanol (3:1) in an amount of 10 mg/kg. 7-week old male ICR mice in which diabetes was not induced were grouped as a normal group (n=7), and the normal group was administered with 0.2 ml of a solution of dimethylsulfoxide:ethanol (3:1). […] Administration-completed mice were sacrificed by cervical dislocation, and then the skin and muscle in the femoral region were quickly removed. Then, left and right sciatic nerves were respectively separated in a length of 20 mm or more and stored in a physiological saline while air flows through the physiological saline. The separated sciatic nerves were placed on a 20 mm round measurement plate. Then, a sensor and a stimulating probe were connected to respective neuroterminals and the electrical conductivity was measured using a digital storage oscilloscope to assess the nerve transmission speed (see FIGS. 5 and 6.)
# In general, the myelin is a phospholipid membrane surrounding axons with several layers, and also called as myelin sheath. […]
# [3] = system: sorbitol in the sciatic nerve; experiment: Change in amount of sorbitol in sciatic nerve of diabetes-induced mouse (HPLC); format: in vivo, alloxan-induced diabetic ICR mice; details: diabetes-induced mice, 10 mg/kg p.o. three times per week, 2 weeks
# Experimental: The therapeutic effect of the compound according to the present invention on the neuropathy was identified by measuring a change in the amount of sorbitol in the sciatic nerve.
# 7-week old male ICR mice underwent alimentary abstinence for 18 hours, and then alloxan dissolved in a physiological saline was once injected to them by intraperitoneal injection in an amount of 160 mg/kg to induce diabetes. Mice that maintained their fasting blood sugar to 200 mg/dl or more for one week, that is, diabetes-induced mice were selected and then divided into a control group (n=3), and a compound-administered group (n=3). The control group was administered with 0.2 ml of a solution of dimethylsulfoxide:ethanol (3:1), and the compound-administered group was administered with the compound of Formula 2 dissolved in a solution of dimethylsulfoxide:ethanol (3:1) in an amount of 10 mg/kg. 7-week old male ICR mice in which diabetes was not induced were grouped as a normal group (n=3), and the normal group was administered with 0.2 ml of a solution of dimethylsulfoxide:ethanol (3:1). […] Administration-completed mice were sacrificed by cervical dislocation, and then the amount of the sorbitol in the sciatic nerve was measured by HPLC (see FIG. 8). […]
# [4] = system: sciatic nerve of diabetes-induced mouse; experiment: Histological comparison of sciatic nerve of diabetes-induced mouse; format: in vivo, alloxan-induced diabetic ICR mice; details: diabetes-induced mice, compound 10 mg/kg p.o. three times per week, 2 months; toluidine blue, 600x/1200x
# Experimental: The therapeutic effect of the compound according to the present invention on the neuropathy was identified by measuring a histological change of the sciatic nerve.
# 7-week old male ICR mice underwent alimentary abstinence for 18 hours, and then alloxan dissolved in a physiological saline was once injected to them by intraperitoneal injection in an amount of 160 mg/kg to induce diabetes. Mice that maintained their fasting blood sugar to 200 mg/dl or more for one week, that is, diabetes-induced mice were selected and then divided into a control group (n=5), an extract-administered group (n=5), and a compound-administered group (n=3). The control group was […] with 0.2 ml of a solution of dimethylsulfoxide:ethanol (3:1), the extract-administered group was administered with the extract obtained according to Example 1 dissolved in a solution of dimethylsulfoxide:ethanol (3:1) in an amount of 100 mg/kg, and the compound-administered group was administered with the compound of Formula 2 dissolved in a solution of dimethylsulfoxide:ethanol (3:1) in an amount of 10 mg/kg. All groups were treated three times by oral administration per one week, and the entire administration period was 2 months. […]
# [5] = system: endogenous nerve growth factor; experiment: Level of nerve growth factor in mouse serum (ELISA); format: in vivo; details: normal male ICR mice, 10 mg/kg orally once, after 24 hours
# Experimental: The compound of Formula 2 was dissolved in 0.2 ml of a solution of dimethyl-sulfoxide:ethanol (3:1), and then orally administered once to 7-week old male ICR mice (n=7) in an amount of 10 mg/kg. After 24 hours, the amount of an endogenous nerve growth factor was measured by ELISA. As a control group, an ICR mouse was orally administered once with 0.2 ml of the dimethylsulfoxide:ethanol (3:1). Then, the amount of a nerve growth factor in the control group was measured in the same manner as described above.
# [6] = system: endogenous nerve growth factor; experiment: Level of nerve growth factor in serum of diabetes-induced mouse (ELISA); format: in vivo, alloxan-induced diabetic ICR mice; details: diabetes-induced mice, compound 10 mg/kg p.o., three times per week, one month
# Experimental: An alloxan-induced diabetic mouse was prepared as an animal model having diabetic neuropathy, one of the multiple neuropathies.
# 7-week old male ICR mice underwent alimentary abstinence for 18 hours, and then alloxan dissolved in a physiological saline was once injected to them by intraperitoneal injection in an amount of 160 mg/kg to induce diabetes. Mice that maintained their fasting blood sugar to 200 mg/dl or more for one week, that is, diabetes-induced mice were selected and then divided into a control group (n=10), an extract-administered group (n=10), and a compound-administered group (n=10). The control group was administered with 0.2 ml of a solution of dimethylsulfoxide:ethanol (3:1), the extract-administered group was administered with the extract obtained according to Example 1 dissolved in a solution of dimethylsulfoxide:ethanol (3:1) in an amount of 100 mg/kg, and the compound-administered group was administered with the compound of Formula 2 dissolved in a solution of dimethylsulfoxide:ethanol (3:1) in an amount of 10 mg/kg. The all groups were orally administered three times per one week, and the entire administration period was one month. The amount of an endogenous nerve growth factor in the serum was measured by ELISA. […]
molecule,measurement,setting,value
"nerve growth factor: nerve growth factor (R&D system, USA), positive control for neurite outgrowth [reference compound]",neurite outgrowth,PC 12 cell; 50 ng/□ of nerve growth factor,neurite outgrowth was induced
"C[C@@H]1CC[C@@]2(OC1)O[C@H]1C[C@H]3[C@@H]4CC=C5C[C@@H](O)CC[C@]5(C)[C@H]4CC[C@]3(C)[C@H]1[C@@H]2C [compound of Formula 2, 3beta, 25R-spirost-5-en-3-ol]","nerve growth factor in the sciatic nerve, higher than vehicle control group",[1],about 30%
same,"transmission speed of the sensory nerve, higher than diabetes-induced control group",[2]; one month,25%
same,"transmission speed of the motor nerve, higher than control group",[2]; two months,40%
same,"transmission speed of the sensory nerve, higher than control group",[2]; two months,45%
same,neurite outgrowth,PC 12 cell; 10 □/□ of the compound,neurite outgrowth was induced
same,"sorbitol in the sciatic nerve, lower than diabetes-induced control group",[3],10%
same,histology of axon and myelin in the central part of the sciatic nerve,[4],clearly observed
same,nerve growth factor in the serum relative to control group,[5],about 2.5 times
same,endogenous nerve growth factor in the serum relative to vehicle control group,[6],four
